Assay results taken from publication PMC10266688 (PLOS ONE, 2023).
“And” between values parts separate entries of the source, which are not always exact repeats. Equal values may be shown once. Read-outs that look alike come from different tables or passages of the source.

Experiment: Single administration dose escalation study (MTD, body weight, clinical observations), female CD1 mice
Type: in vivo
Conditions: for Body weight change, Mean / Body weight change: day 7 vs initial weight; for Body weight change, Mean: group mean; for MTD at 7 days: mouse, in vivo, female CD1 mice
Description: Mice were dosed on day 1 and clinical condition recorded at 0.5 h, 2 h, 4 h, 6 h, and days 1–7 (S6 Table).
Gc - general condition observation
X - treatment with compound or vehicle

Structure (SMILES): N#Cc1ccc(/C=C2/C(=O)/C(=C/c3ccc(C#N)cc3)C23CCNCC3)cc1 [Up284]
- Body weight, Mean (IV 60 mg/kg single dose, day 4, group mean): 24.93 g
- Body weight (IV 60 mg/kg single dose, day 4, individual mice, 60 mg/kg): 26.6 g and 23.5 g and 24.7 g
- Body weight, Mean (IV 60 mg/kg single dose, day 5, group mean): 24.83 g
- Body weight (IV 60 mg/kg single dose, day 5, individual mice, 60 mg/kg): 26.5 g and 23.3 g and 24.7 g
- Body weight, Mean (IV 60 mg/kg single dose, day 6, group mean): 25.30 g
- Body weight (IV 60 mg/kg single dose, day 6, individual mice, 60 mg/kg): 26.7 g and 24.1 g and 25.1 g
- Body weight, Mean (IV 60 mg/kg single dose, day 7, group mean): 25.27 g
- Body weight (IV 60 mg/kg single dose, day 7, individual mice, 60 mg/kg): 26.6 g and 23.9 g and 25.3 g
- Body weight change, Mean (IV 60 mg/kg single dose): 3.48%
- Body weight change (IV 60 mg/kg single dose, individual mice, 60 mg/kg): 2.31% and 5.29% and 2.85%
- Clinical observation (IV 60 mg/kg, day 0, 0.5 h, individual mice, 60 mg/kg): 0
- Clinical observation (IV 60 mg/kg, day 0, 2 h, individual mice): 0
- Clinical observation (IV 60 mg/kg, day 0, 4 h, individual mice): 0
- Clinical observation (IV 60 mg/kg, day 0, 6 h, individual mice): 0
- Clinical observation (IV 60 mg/kg, day 0, time 0, individual mice): 0
- Clinical observation (IV 60 mg/kg, day 1, individual mice): 0
- Clinical observation (IV 60 mg/kg, day 2, individual mice): 0
- Clinical observation (IV 60 mg/kg, day 3, individual mice): 0
- Clinical observation (IV 60 mg/kg, day 4, individual mice): 0
- Clinical observation (IV 60 mg/kg, day 5, individual mice): 0
- Clinical observation (IV 60 mg/kg, day 6, individual mice): 0
- Clinical observation (IV 60 mg/kg, day 7, individual mice): 0
- Body weight, Mean (PO 100 mg/kg single dose, day 0, group mean): 24.70 g
- Body weight (PO 100 mg/kg single dose, day 0, individual mice, 100 mg/kg): 27.5 g and 24.7 g and 21.9 g
- Body weight, Mean (PO 100 mg/kg single dose, day 1, group mean): 24.30 g
- Body weight (PO 100 mg/kg single dose, day 1, individual mice, 100 mg/kg): 26.4 g and 24.4 g and 22.1 g
- Body weight, Mean (PO 100 mg/kg single dose, day 2, group mean): 24.77 g
- Body weight (PO 100 mg/kg single dose, day 2, individual mice, 100 mg/kg): 27.0 g and 24.5 g and 22.8 g
- Body weight, Mean (PO 100 mg/kg single dose, day 3, group mean): 25.10 g
- Body weight (PO 100 mg/kg single dose, day 3, individual mice, 100 mg/kg): 27.2 g and 25.0 g and 23.1 g
- Body weight, Mean (PO 100 mg/kg single dose, day 4, group mean): 25.30 g
- Body weight (PO 100 mg/kg single dose, day 4, individual mice, 100 mg/kg): 27.9 g and 24.5 g and 23.5 g
- Body weight, Mean (PO 100 mg/kg single dose, day 5, group mean): 24.77 g
- Body weight (PO 100 mg/kg single dose, day 5, individual mice, 100 mg/kg): 26.9 g and 24.4 g and 23.0 g
- Body weight, Mean (PO 100 mg/kg single dose, day 6, group mean): 25.50 g
- Body weight (PO 100 mg/kg single dose, day 6, individual mice, 100 mg/kg): 28.4 g and 25.0 g and 23.1 g
- Body weight, Mean (PO 100 mg/kg single dose, day 7, group mean): 26.10 g
- Body weight (PO 100 mg/kg single dose, day 7, individual mice, 100 mg/kg): 29.3 g and 25.6 g and 23.4 g
- Body weight change, Mean (PO 100 mg/kg single dose): 5.68%
- Body weight change (PO 100 mg/kg single dose, individual mice, 100 mg/kg): 6.55% and 3.64%
- Clinical observation (PO 100 mg/kg, day 0, 0.5 h, individual mice): 0
- Clinical observation (PO 100 mg/kg, day 0, 2 h, individual mice): 0
- Clinical observation (PO 100 mg/kg, day 0, 4 h, individual mice): 0
- Clinical observation (PO 100 mg/kg, day 0, 6 h, individual mice): 0
- Clinical observation (PO 100 mg/kg, day 0, time 0, individual mice): 0
- Clinical observation (PO 100 mg/kg, day 1, individual mice): 0
- Clinical observation (PO 100 mg/kg, day 2, individual mice): 0
- Clinical observation (PO 100 mg/kg, day 3, individual mice): 0
- Clinical observation (PO 100 mg/kg, day 4, individual mice): 0
- Clinical observation (PO 100 mg/kg, day 5, individual mice): 0
- Clinical observation (PO 100 mg/kg, day 6, individual mice): 0
- Clinical observation (PO 100 mg/kg, day 7, individual mice): 0
- Body weight, Mean (PO 200 mg/kg single dose, day 0, group mean): 24.70 g
- Body weight, Mean (PO 200 mg/kg single dose, day 1, group mean): 24.90 g
- Body weight, Mean (PO 200 mg/kg single dose, day 2, group mean): 25.17 g
- Body weight, Mean (PO 200 mg/kg single dose, day 3, group mean): 25.07 g
- Body weight, Mean (PO 200 mg/kg single dose, day 4, group mean): 25.40 g
- Body weight, Mean (PO 200 mg/kg single dose, day 5, group mean): 25.33 g
- Body weight, Mean (PO 200 mg/kg single dose, day 6, group mean): 25.63 g
- Body weight, Mean (PO 200 mg/kg single dose, day 7, group mean): 25.87 g
- Body weight (PO 200 mg/kg single dose, day 7, individual mice, 200 mg/kg): 26.3 g
- Body weight change, Mean (PO 200 mg/kg single dose): 4.87%
- Body weight change (PO 200 mg/kg single dose, individual mice, 200 mg/kg): 8.68% and 0.00% and 5.93%
- Clinical observation (PO 200 mg/kg, day 0, 0.5 h, individual mice): 0
- Clinical observation (PO 200 mg/kg, day 0, 2 h, individual mice): 0
- Clinical observation (PO 200 mg/kg, day 0, 4 h, individual mice): 0
- Clinical observation (PO 200 mg/kg, day 0, 6 h, individual mice): 0
- Clinical observation (PO 200 mg/kg, day 0, time 0, individual mice): 0
- Clinical observation (PO 200 mg/kg, day 1, individual mice): 0
- Clinical observation (PO 200 mg/kg, day 2, individual mice): 0
- Clinical observation (PO 200 mg/kg, day 3, individual mice): 0
- Clinical observation (PO 200 mg/kg, day 4, individual mice): 0
- Clinical observation (PO 200 mg/kg, day 5, individual mice): 0
- Clinical observation (PO 200 mg/kg, day 6, individual mice): 0
- Clinical observation (PO 200 mg/kg, day 7, individual mice): 0
- MTD at 7 days (ip, read-out: MTD, single IP dose): 40 mg/kg
- MTD at 7 days (iv, read-out: MTD, single IV dose (not reached at maximum feasible dose)): ≥ 60 mg/kg
- MTD at 7 days (po, read-out: MTD, single PO dose (not reached at maximum feasible dose)): ≥ 200 mg/kg
